Measurements taken from patent publication US7094754B2, “Anti-aging and wound healing compounds” (Kimberly-Clark Worldwide, Inc., priority 2001, dated 2006).

Tests used:
[1] = test system: normal human dermal fibroblasts (NHDF); test: NHDF migration assay (48-well chemotaxis chamber); type: cell-based
Procedure: Normal, human dermal fibroblasts (NHDF) were obtained from Biowhittaker, (Walkersville, Md.) and propagated in T75 flasks in FBM media (500 mL, Biowhittaker) containing insulin, hFGF-b, GA-1000, and fetal bovine serum (10 mL) for up to 12 passages. For the migration assay, NHDF were washed once with 10 mL of Hank's buffered saline solution (HBSS). Three milliliters of trypsin (0.25%) in EDTA were added to the T75 flask for no more than five minutes to remove NHDF from the flask. NHDF in trypsin solution were added to 7 mL of FBM with no supplements added. NHDF were centrifuged for 5 minutes, and the supernatant was removed. NHDF were resuspended in 10 mL of FBM for counting. NHDF were centrifuged for another 5 minutes, and the supernatant was removed. NHDF were resuspended at 1×10^6 cells per mL in FBM without supplements. It was important to use FBM media only in migration assays because the complete media contains fibroblast growth factor and serum, both of which will trigger migration of fibroblasts.
(§1) Peptides were synthesized and purified by the Microchemical Facility at Emory University or by SigmaGenesis. All peptides were analyzed by mass spectrometry after HPLC to assess purity. Approximately 0.5–2.0 milligrams of peptide were used to make fresh stock solutions (5 mg/mL in PBS) for each migration assay. The peptide stock solutions in PBS were used to make more dilute solutions (1 mg/mL, 100 μg/mL, 10 μg/mL, 1 μg/mL, 100 ng/mL, 10 ng/mL) in FBM (without supplements) for the migration assays.
Polyvinylpyrrolidone-free polycarbonate membranes with […] pores (Neuroprobe, Inc., Gaithersburg, Md.) were washed with 90% ethanol for 15 minutes and rinsed four times with deionized water. Membranes were then placed into a glass dish containing an aqueous solution of 5 μg/mL gelatin. The glass dish was placed in to a water bath at about 90° C. for one hour. Membranes were removed from the gelatin solution and were allowed to dry for one hour in the 37° C. incubator.
A 48-well chemotaxis chamber (Neuroprobe, Inc., Gaithersburg, Md.) (see FIG. 20) was used for the migration assays. Twenty-eight/μL of each test solution were added to the bottom wells of the chamber in quadruplicate. A gelatin-treated membrane was placed carefully on top of the bottom wells. The gasket and top part of chamber were then placed carefully on top of the membrane. The apparatus was tightened using six thumbscrews. A solution of NHDF containing an estimated cell density (2×10^5 cells per mL) was made by adding 320 μL of the 1×10^6 cells per mL solution to 1.28 mL of FBM (no supplements). Fifty microliters of the 2×10^5 cells per mL NHDF solution were added to the top part of each well in the chamber. The chamber was placed in the incubator at 37° C./5% CO2 for three hours. The chamber was removed, the thumbscrews were removed, and the chamber was turned upside down on a paper towel. […] The membrane was carefully removed. […] The membrane was fixed with methanol and stained using the Diff-Quik Staining Solutions I and II. The nuclei of NHDF are stained purple. The membrane was mounted on a glass slide using cedarwood immersion oil and a cover slip. […] The average number of migrated NHDF in the negative control was subtracted from the experimental (peptide) data and positive control data.

[2] = test system: neutrophils isolated from human blood; test: Neutrophil migration assay (transwell); type: cell-based; details: HSA 0.4%
Procedure: as §1, with “HBSS/HSA)” for “PBS)”, “solutions” for “solutions in PBS”, “ng/mL, and” for “ng/mL,”, “HBSS/HSA” for “FBM (without supplements)”, “the” for “the migration”
Neutrophils were isolated from human blood (collected in Vacutainerm tubes containing EDTA) by layering the blood/EDTA mixture (about 20 mL) on top of two layers of Histopaque™ 1119 (bottom layer, 18 mL) and 1077 (top layer, 7 mL) in 50 mL Falcon tubes. The tubes were centrifuged at 1800 rpm for 30 minutes (no brake). Four layers appeared in the tubes after the spin (from top to bottom layers): plasma, 1077, 1119, and red blood cells. The buffy coat between the plasma and 1077 layers contained lymphocytes, monocytes, and some platelets. The plasma layer, the buffy coat, and most of the 1077 layer was removed and discarded. The 1119 layer that contained the neutrophils was removed and was placed into a clean 50 mL tube. Dulbecco's Phosphate Buffered Saline (DPBS) was added to bring the volume to 50 mL. The cells were centrifuged for 15 minutes at 2100 rpm. The cells were resuspended in 10 mL of DPBS, transferred to 15 mL tubes, and centrifuged again for 10 minutes at 2000 rpm. This process was repeated to wash the cells a second time. After the supernatant was removed, the red blood cells were lysed by adding 6 mL of cold sterile water to each 15 mL of supernatant. Cells were mixed in the water for only 30 seconds. Six mL of cold 2% sterile saline was then added. Cells were centrifuged again for 10 minutes at 2000 rpm. The red supernatant (containing hemoglobin from red blood cells) was removed. This process of red blood cell lysis was repeated two more times to remove all of the red blood cells. After most of the red blood cells were removed, neutrophils were resuspended in 10 mL of HBSS/HSA for counting with trypan blue.
A neutrophil migration assay was performed in duplicate using a 24-well transwell plate (3 μm pore size for membrane). Transwell membranes were pre-moistened with 20–40 μL of HBSS/HSA (0.04–0.4%). Chemotactic solutions (500 μL) were added to the bottom of each well. […] Transwells were then placed into the chemotactic solutions. The plate was placed into the incubator (37° C., 5% CO2) for one hour. Cells that migrated through the membrane were counted using trypan blue.
In the neutrophil migration experiments, neutrophils that were isolated were approximately 95% viable. Neutrophils were resuspended in HBSS/0.4%HSA for this experiment. IL-8 (10 nM in the HBSS/0.4%HSA buffer) was used as a positive control for neutrophil migration.

CC(C)[C@H](NC(=O)[C@H](CC(=O)O)NC(=O)[C@@H]1CCCN1C(=O)[C@H](CC(N)=O)NC(=O)CNC(=O)[C@H](CS)NC(=O)[C@H](CCCNC(=N)N)NC(=O)[C@@H]1CCCN1)C(=O)N[C@@H](C)C(=O)N[C@@H](CC(N)=O)C(=O)N[C@@H](Cc1ccc(O)cc1)C(=O)N[C@@H](CC(N)=O)C(=O)N[C@@H](Cc1ccccc1)C(=O)N[C@@H](Cc1ccccc1)C(=O)N1CCC[C@H]1C(=O)N[C@@H](CCCNC(=N)N)C(=O)N[C@@H](CCCCN)C(=O)N1CCC[C@H]1C(=O)N[C@@H](CCCCN)C(=O)O [19-mer]
percent of migrated NHDF compared to plasma fibronectin positive control ([1]; 100 μg/mL peptide, three hours): 46%±3%
percent of migrated NHDF compared to plasma fibronectin positive control ([1]; 100 μg/mL peptide, three hours, listed as 19-mer peptide): 46±3%
percent of migrated NHDF compared to plasma fibronectin positive control ([1]; 1000 μg/mL peptide, three hours): 55%±3%
percent of migrated NHDF compared to plasma fibronectin positive control ([1]; 1000 μg/mL peptide, three hours, listed as 19-mer peptide): 55±3%
percent of migrated NHDF compared to plasma fibronectin positive control ([1]; concentrations below 100 μg/mL): about 20%
Percent Neutrophil Migration exp.1 ([2]; 1 μg/mL): 32%
Percent Neutrophil Migration exp.1 ([2]; 10 μg/mL): 22%
Percent Neutrophil Migration exp.1 ([2]; 100 μg/mL): 29%
Percent Neutrophil Migration exp.1 ([2]; 1 mg/mL, one hour): 23%
